29 compounds from US20260209180A1, “PROTEASE INHIBITORS FOR TREATING OR PREVENTING CORONAVIRUS INFECTION” (Merck Sharp & Dohme LLC, priority 2023, published 2026) can be followed below.

SMILES strings stand for the structures.

This test addresses SARS2 coronavirus 3CL protease (Severe acute respiratory syndrome coronavirus 2, UniProt P0DTD1). The test can be described thus: SARS2 Coronavirus 3CL Protease Assay (FRET). It is filed as biochemical. The note with it: 5 nM protease pre-incubated with compound 30 minutes; 15 uM peptide substrate; 4 h room temperature; read-out: FRET Potency (nM); IC50 values in the SARS2 3CLPro FRET assay. The protocol: The enzymatic activity of SARS2 coronavirus 3CL protease was determined in a FRET (fluorescence resonance energy transfer)-based assay measuring the cleavage of a peptide substrate by recombinantly expressed and purified enzyme. Cleavage of the peptide SEQ ID NO: 1 (CPC Scientific) by SARS2 3CL protease was measured in reaction buffer (50 mM Hepes pH 7.5, 0.01% Triton X-100, 0.01% BSA, 2 mM DTT). […] Room temperature reactions (4 h) were quenched by addition of a high dose of inhibitor and read on an appropriate plate reader (excitation wavelength=495 nm, emission wavelength=520 nm). Data were analyzed by a standard 4 parameter fit to determine IC50 values.
As to `CNC(=O)C(=O)[C@H](CCC(C)(F)F)NC(=O)c1cc(Cl)ccc1NC(=O)C1CC12CCOCC2` (stereo partly drawn) [Example 26, N-[4-chloro-2-[[(1S)-4,4-difluoro-1-[2-(methylamino)-2-oxo-acetyl]pentyl]carbamoyl]phenyl]-6-oxaspiro[2.5]octane-2-carboxamide], the IC50 was found to be 15.1 nM.

On to `CNC(=O)C(=O)[C@H](CCC(C)F)NC(=O)c1cc(Cl)ccc1NC(=O)OC` (single isomer, unassigned) [Example 6A], for which the IC50 worked out at 25.8 nM. In the case of `CNC(=O)C(=O)[C@H](CCC(C)(F)F)NC(=O)c1cc(Cl)ccc1NC(=O)[C@@H]1CCc2nccc(=O)n21` [Example 25, (6S)-N-[4-chloro-2-[[(1S)-4,4-difluoro-1-[2-(methylamino)-2-oxo-acetyl]pentyl]carbamoyl]phenyl]-4-oxo-7,8-dihydro-6H-pyrrolo[1,2-a]pyrimidine-6-carboxamide], the IC50 came out at 14.8 nM. Turning to `CNC(=O)C(=O)[C@H](CCC(C)(F)F)NC(=O)c1cc(Cl)ccc1NC(=O)c1cncc(C#N)c1` [Example 51, N-[4-chloro-2-[[(1S)-4,4-difluoro-1-[2-(methylamino)-2-oxo-acetyl]pentyl]carbamoyl]phenyl]-5-cyano-pyridine-3-carboxamide], the IC50 worked out at 15.1 nM. As for `CNC(=O)C(=O)[C@H](CCC(C)(F)F)NC(=O)c1cc(Cl)ccc1NC(=O)CCC(F)(F)F` [Example 14, 5-chloro-N-[(1S)-4,4-difluoro-1-[2-(methylamino)-2-oxo-acetyl]pentyl]-2-(4,4,4-trifluorobutanoylamino) benzamide], the figure is 8.2 nM. The figure for `CNC(=O)C(=O)[C@H](CCC(C)(F)F)NC(=O)c1cc(C#N)ccc1NC(=O)c1cccc(F)c1` [Example 41, 5-cyano-N-[(1S)-4,4-difluoro-1-[2-(methylamino)-2-oxo-acetyl]pentyl]-2-[(3-fluorobenzoyl)amino]benzamide] is 45.3 nM. Turning to `CC(F)(F)CC[C@H](NC(=O)c1cc(F)cnc1NC(=O)c1cccc(F)c1)C(=O)C(=O)NC1CC1` [Example 40, N-[(1S)-1-[2-(cyclopropylamino)-2-oxo-acetyl]-4,4-difluoro-pentyl]-5-fluoro-2-[(3-fluorobenzoyl)amino]pyridine-3-carboxamide], the IC50 worked out at 41.6 nM. The figure for `Cc1cnc(NC(=O)c2cccc(C(F)(F)F)c2)c(C(=O)N[C@@H](CCC(C)(F)F)C(=O)C(=O)NC2CC2)c1` [Example 45, N-[(1S)-1-[2-(cyclopropylamino)-2-oxo-acetyl]-4,4-difluoro-pentyl]-5-methyl-2-[[3-(trifluoromethyl)benzoyl]amino]pyridine-3-carboxamide] is 76.2 nM; for `CC(F)(F)CC[C@H](NC(=O)c1cc(Cl)cnc1NC(=O)c1cccc(C(F)(F)F)c1)C(=O)C(=O)NC1CC1` [Example 5, (S)-5-chloro-N-(1-(cyclopropylamino)-6,6-difluoro-1,2-dioxoheptan-3-yl)-2-(3-(trifluoromethyl)benzamido)nicotinamide] it is 9.2 nM; for `CNC(=O)C(=O)[C@H](CCC(C)(F)F)NC(=O)c1cc(F)ccc1NC(=O)C1(C(F)(F)F)CC1` [Example 42, N-[(1S)-4,4-difluoro-1-[2-(methylamino)-2-oxo-acetyl]pentyl]-5-fluoro-2-[[1-(trifluoromethyl)cyclopropane-carbonyl]amino]benzamide] it is 47 nM. The figure for `CNC(=O)C(=O)[C@H](CCC(C)(F)F)NC(=O)c1cc(Cl)ccc1NC(=O)c1cccnc1` [Example 52] is 15.6 nM; for `CNC(=O)C(=O)[C@H](CCC(C)(F)F)NC(=O)c1cc(F)cnc1NC(=O)C12CC(F)(C1)C2` [Example 35, N-[(1S)-4,4-difluoro-1-[2-(methylamino)-2-oxo-acetyl]pentyl]-5-fluoro-2-[(3-fluorobicyclo[1.1.1]pentane-1-carbonyl)amino]pyridine-3-carboxamide] it is 23.9 nM; for `CNC(=O)C(=O)[C@H](CCC(C)F)NC(=O)c1cc(Cl)ccc1NC(=O)OC` (single isomer, unassigned) [Example 6C] it is 13.6 nM. For the compound `CNC(=O)C(=O)[C@H](CCC(C)(F)F)NC(=O)c1cc(Cl)ccc1NC(=O)C1CC(F)(F)C1` [Example 13, 5-chloro-2-[(3,3-difluorocyclobutanecarbonyl)amino]-N-[(1S)-4,4-difluoro-1-[2-(methylamino)-2-oxo-acetyl]pentyl]benzamide], the IC50 amounted to 8 nM.

Turning to `CNC(=O)C(=O)[C@H](CCC(C)(F)F)NC(=O)c1cc(Cl)cnc1NC(=O)C12CC(F)(C1)C2` [Example 38, 5-chloro-N-[(1S)-4,4-difluoro-1-[2-(methylamino)-2-oxo-acetyl]pentyl]-2-[(3-fluorobicyclo[1.1.1]pentane-1-carbonyl)amino]pyridine-3-carboxamide], the IC50 amounted to 40.4 nM. The figure for `CNC(=O)C(=O)[C@H](CCC(C)(F)F)NC(=O)c1cc(Cl)cnc1NC(=O)c1cccc(C(F)(F)F)c1` [Example 21, 5-chloro-N-[(1S)-4,4-difluoro-1-[2-(methylamino)-2-oxo-acetyl]pentyl]-2-[[3-(trifluoromethyl)benzoyl]amino]pyridine-3-carboxamide] is 11.7 nM; for `CC(F)(F)CC[C@H](NC(=O)c1cc(F)cnc1NC(=O)C(C)(C)C)C(=O)C(=O)NC1CC1` [Example 46, N-[(1S)-1-[2-(cyclopropylamino)-2-oxo-acetyl]-4,4-difluoro-pentyl]-2-(2,2-dimethylpropanoylamino)-5-fluoro-pyridine-3-carboxamide] it is 94.8 nM; for `CNC(=O)C(=O)[C@H](CCC(C)(F)F)NC(=O)c1cc(Cl)ccc1NC(=O)C12CC(C(F)(F)F)(C1)C2` [Example 22, N-[4-chloro-2-[[(1S)-4,4-difluoro-1-[2-(methylamino)-2-oxo-acetyl]pentyl]carbamoyl]phenyl]-3-(trifluoromethyl)bicyclo[1.1.1] pentane-1-carboxamide] it is 13 nM.

For the compound `CNC(=O)C(=O)[C@H](CCC(C)(F)F)NC(=O)c1cc(Cl)ccc1NC(=O)C1CC1C(F)(F)F` (stereo partly drawn) [Example 30, 5-chloro-N-[(1S)-4,4-difluoro-1-[2-(methylamino)-2-oxo-acctyl]pentyl]-2-[[2-(trifluoromethyl)cyclopropane-carbonyl]amino]benzamide], the IC50 worked out at 20.7 nM.

Turning to `CNC(=O)C(=O)[C@H](CCC(C)(F)F)NC(=O)c1cc(Cl)ccc1NC(=O)C(C)c1cscn1` (stereo partly drawn) [Example 8, 5-chloro-N-[(1S)-4,4-difluoro-1-[2-(methylamino)-2-oxo-acetyl]pentyl]-2-(2-thiazol-4-ylpropanoylamino)benzamide], the IC50 turned out to be 6.6 nM. The figure for `CNC(=O)C(=O)[C@H](CCC(C)(F)F)NC(=O)c1cc(Cl)ccc1NC(=O)c1cccc(C(F)(F)F)n1` [Example 17, N-[4-chloro-2-[[(1S)-4,4-difluoro-1-[2-(methylamino)-2-oxo-acetyl]pentyl]carbamoyl]phenyl]-6-(trifluoromethyl)pyridine-2-carboxamide] is 8.7 nM.

Turning to `CNC(=O)C(=O)[C@H](CCC(C)(F)F)NC(=O)c1cc(C#N)ccc1NC(=O)C12CC(C(F)(F)F)(C1)C2` [Example 37, N-[4-cyano-2-[[(1S)-4,4-difluoro-1-[2-(methylamino)-2-oxo-acetyl]pentyl]carbamoyl]phenyl]-3-(trifluoromethyl)bicyclo[1.1.1] pentane-1-carboxamide], the IC50 was 31.1 nM. In the case of `CC(F)(F)CC[C@H](NC(=O)c1cc(Cl)cnc1NC(=O)c1cccc(F)c1)C(=O)C(=O)NC1CC1` [Example 29, 5-chloro-N-[(1S)-1-[2-(cyclopropylamino)-2-oxo-acetyl]-4,4-difluoro-pentyl]-2-[(3-fluorobenzoyl)amino]pyridine-3-carboxamide], the IC50 amounted to 20.4 nM. The figure for `CNC(=O)C(=O)[C@H](CCC(C)(F)F)NC(=O)c1cc(Cl)ccc1NC(=O)C1CC12CC2` (single isomer, unassigned) [Example 33] is 21.5 nM; for `CNC(=O)C(=O)[C@H](CCC(C)(F)F)NC(=O)c1cc(Cl)ccc1NC(=O)C1CCOCC1` [Example 16, N-[4-chloro-2-[[(1S)-4,4-difluoro-1-[2-(methylamino)-2-oxo-acetyl]pentyl]carbamoyl]phenyl] tetrahydropyran-4-carboxamide] it is 8.5 nM; for `CNC(=O)C(=O)[C@H](CCC(C)(F)F)NC(=O)c1cc(Cl)ccc1NC(=O)C1CCc2scnc21` (stereo partly drawn) [Example 9, N-[4-chloro-2-[[(1S)-4,4-difluoro-1-[2-(methylamino)-2-oxo-acetyl]pentyl]carbamoyl]phenyl]-5,6-dihydro-4H-cyclopenta[d]thiazole-4-carboxamide] it is 7 nM. As for `CNC(=O)C(=O)[C@H](CCC(C)(F)F)NC(=O)c1cc(Cl)cnc1NC(=O)C1CC(F)(F)C1` [Example 54, 5-chloro-2-[(3,3-difluorocyclobutanecarbonyl)amino]-N-[(1S)-4,4-difluoro-1-[2-(methylamino)-2-oxo-acetyl]pentyl]pyridine-3-carboxamide], the figure is 7.5 nM; as for `CNC(=O)C(=O)[C@H](CCC(C)(F)F)NC(=O)c1cc(Cl)ccc1NC(=O)OC1CC1` [Example 59, cyclopropyl N-[4-chloro-2-[[(1S)-4,4-difluoro-1-[2-(mcthylamino)-2-oxo-acetyl]pentyl]carbamoyl]phenyl]carbamate], 13.1 nM. On to `COC(=O)N[C@H](C(=O)Nc1ccc(Cl)cc1C(=O)N[C@@H](CCC(C)(F)F)C(=O)C(=O)NC1CC1)C(C)(C)C` [Example 3, Methyl ((S)-1-((4-chloro-2-(((S)-1-(cyclopropylamino)-6,6-difluoro-1,2-dioxoheptan-3-yl)carbamoyl)phenyl)amino)-3,3-dimethyl-1-oxobutan-2-yl)carbamate], for which the IC50 was 24 nM.
